Read-outs that look alike come from different tables or passages of the source.
Columns and labels:
[1] = target: protein kinases (human kinome) (Homo sapiens, UniProt O00746); type: cell-based; settings: NME4 (O00746); experiment wp084
[2] = target: T1, protein kinases (human kinome) (Homo sapiens, UniProt Q8TBX8); type: cell-based; settings: PIP4K2C Q8TBX8-1
T1 sequence (Q8TBX8 1-421): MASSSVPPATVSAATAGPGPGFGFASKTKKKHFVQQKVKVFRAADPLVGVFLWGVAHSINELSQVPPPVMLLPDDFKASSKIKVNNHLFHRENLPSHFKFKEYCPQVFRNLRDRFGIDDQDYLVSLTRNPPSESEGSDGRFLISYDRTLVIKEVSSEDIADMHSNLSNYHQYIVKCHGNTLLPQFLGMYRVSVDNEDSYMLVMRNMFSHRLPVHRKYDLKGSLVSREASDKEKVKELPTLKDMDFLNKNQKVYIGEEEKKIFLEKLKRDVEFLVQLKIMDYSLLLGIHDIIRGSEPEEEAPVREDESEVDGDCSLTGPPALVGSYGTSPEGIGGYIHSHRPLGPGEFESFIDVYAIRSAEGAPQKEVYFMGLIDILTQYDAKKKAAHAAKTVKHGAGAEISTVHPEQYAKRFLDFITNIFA

[3] = target: protein kinases (human kinome) (Homo sapiens, UniProt Q8N165); type: cell-based; settings: for logFC of PDIK1L (Q8N165): Experiment wp168; for logFC: PDIK1L (Q8N165), experiment wp168
protein kinases (human kinome) (Homo sapiens, UniProt Q8N165), sequence (Q8N165 whole entry): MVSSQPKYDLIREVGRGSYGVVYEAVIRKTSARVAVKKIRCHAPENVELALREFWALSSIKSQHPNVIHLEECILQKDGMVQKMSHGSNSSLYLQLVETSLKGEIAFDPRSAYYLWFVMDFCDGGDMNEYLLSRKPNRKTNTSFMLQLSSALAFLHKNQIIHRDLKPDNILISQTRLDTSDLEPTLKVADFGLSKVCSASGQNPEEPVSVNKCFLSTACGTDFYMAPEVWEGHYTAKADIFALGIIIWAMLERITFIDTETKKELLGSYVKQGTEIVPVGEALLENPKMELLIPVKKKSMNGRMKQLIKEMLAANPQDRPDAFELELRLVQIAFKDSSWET

[4] = target: T2, protein kinases (human kinome) (Homo sapiens, UniProt P51955); type: cell-based; settings: NEK2 (P51955)
T2 sequence (P51955 1-445): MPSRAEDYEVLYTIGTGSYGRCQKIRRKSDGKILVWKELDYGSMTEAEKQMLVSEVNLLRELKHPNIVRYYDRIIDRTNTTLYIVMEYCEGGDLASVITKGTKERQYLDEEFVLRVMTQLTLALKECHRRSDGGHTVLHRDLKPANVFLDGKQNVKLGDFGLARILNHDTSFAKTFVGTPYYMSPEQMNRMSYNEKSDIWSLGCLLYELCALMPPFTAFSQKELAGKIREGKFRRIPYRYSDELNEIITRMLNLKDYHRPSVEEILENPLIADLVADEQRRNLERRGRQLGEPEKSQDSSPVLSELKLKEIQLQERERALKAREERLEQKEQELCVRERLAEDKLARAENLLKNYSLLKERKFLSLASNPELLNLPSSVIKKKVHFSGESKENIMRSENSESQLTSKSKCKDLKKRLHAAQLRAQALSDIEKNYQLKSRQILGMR

[5] = target: protein kinases (human kinome) (Homo sapiens, UniProt P07948); type: cell-based; settings: for logFC: LYN (P07948-1)
protein kinases (human kinome) (Homo sapiens, UniProt P07948), sequence (P07948 whole entry): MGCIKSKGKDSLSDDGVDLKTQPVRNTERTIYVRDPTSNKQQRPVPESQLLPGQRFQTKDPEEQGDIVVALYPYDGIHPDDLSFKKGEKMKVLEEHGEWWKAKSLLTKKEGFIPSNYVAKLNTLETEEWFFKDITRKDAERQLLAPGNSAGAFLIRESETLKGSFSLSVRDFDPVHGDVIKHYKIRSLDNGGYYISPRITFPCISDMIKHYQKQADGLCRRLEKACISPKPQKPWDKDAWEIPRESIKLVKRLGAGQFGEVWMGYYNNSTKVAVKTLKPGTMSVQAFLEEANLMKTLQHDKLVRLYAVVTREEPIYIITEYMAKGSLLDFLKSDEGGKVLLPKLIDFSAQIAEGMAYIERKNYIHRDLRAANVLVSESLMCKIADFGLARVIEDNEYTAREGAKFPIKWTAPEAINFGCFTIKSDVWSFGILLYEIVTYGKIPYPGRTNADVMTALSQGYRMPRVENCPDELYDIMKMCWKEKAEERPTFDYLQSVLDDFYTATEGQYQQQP

[6] = target: protein kinases (human kinome) (Homo sapiens, UniProt Q16832); type: cell-based
protein kinases (human kinome) (Homo sapiens, UniProt Q16832), sequence (Q16832 22-855): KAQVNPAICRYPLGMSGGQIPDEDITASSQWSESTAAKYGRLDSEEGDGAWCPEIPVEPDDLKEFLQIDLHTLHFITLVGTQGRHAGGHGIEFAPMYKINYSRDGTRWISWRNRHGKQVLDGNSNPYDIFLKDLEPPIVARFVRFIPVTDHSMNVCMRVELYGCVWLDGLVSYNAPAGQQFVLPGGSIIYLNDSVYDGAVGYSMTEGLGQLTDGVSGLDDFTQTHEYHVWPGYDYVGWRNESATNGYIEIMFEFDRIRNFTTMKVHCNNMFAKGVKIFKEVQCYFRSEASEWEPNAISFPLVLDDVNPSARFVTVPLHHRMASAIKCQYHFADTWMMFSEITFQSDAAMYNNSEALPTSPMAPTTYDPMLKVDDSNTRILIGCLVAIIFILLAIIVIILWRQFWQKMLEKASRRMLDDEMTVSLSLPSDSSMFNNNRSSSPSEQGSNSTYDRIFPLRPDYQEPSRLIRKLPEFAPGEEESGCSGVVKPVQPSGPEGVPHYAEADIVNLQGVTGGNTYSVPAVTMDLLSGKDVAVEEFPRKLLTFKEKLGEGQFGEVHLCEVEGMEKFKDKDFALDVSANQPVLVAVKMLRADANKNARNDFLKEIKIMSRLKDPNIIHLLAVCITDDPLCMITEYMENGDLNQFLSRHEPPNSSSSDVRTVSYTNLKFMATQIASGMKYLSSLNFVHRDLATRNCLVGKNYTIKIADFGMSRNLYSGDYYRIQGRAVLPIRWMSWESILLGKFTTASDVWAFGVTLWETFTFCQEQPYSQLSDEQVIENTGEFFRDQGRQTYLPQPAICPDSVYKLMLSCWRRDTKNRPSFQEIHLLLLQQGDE

[7] = tested on: extended human kinome (kinase-like proteins); assay: Whole cell quantitative proteomics: extended kinome hits; settings: Accession Q16875-4; experiment wp117
[8] = type: cell-based, H. sapiens; settings: MOLT-4, 1 μM, 5 h, 5 μM CB-5083
[9] = target: extended human kinome (kinase-like proteins) (Homo sapiens, UniProt Q9NYY8); assay: Whole cell quantitative proteomics: extended kinome hits; settings: Accession Q9NYY8; experiment wp160; 1 hr
extended human kinome (kinase-like proteins) (Homo sapiens, UniProt Q9NYY8), sequence (Q9NYY8 whole entry): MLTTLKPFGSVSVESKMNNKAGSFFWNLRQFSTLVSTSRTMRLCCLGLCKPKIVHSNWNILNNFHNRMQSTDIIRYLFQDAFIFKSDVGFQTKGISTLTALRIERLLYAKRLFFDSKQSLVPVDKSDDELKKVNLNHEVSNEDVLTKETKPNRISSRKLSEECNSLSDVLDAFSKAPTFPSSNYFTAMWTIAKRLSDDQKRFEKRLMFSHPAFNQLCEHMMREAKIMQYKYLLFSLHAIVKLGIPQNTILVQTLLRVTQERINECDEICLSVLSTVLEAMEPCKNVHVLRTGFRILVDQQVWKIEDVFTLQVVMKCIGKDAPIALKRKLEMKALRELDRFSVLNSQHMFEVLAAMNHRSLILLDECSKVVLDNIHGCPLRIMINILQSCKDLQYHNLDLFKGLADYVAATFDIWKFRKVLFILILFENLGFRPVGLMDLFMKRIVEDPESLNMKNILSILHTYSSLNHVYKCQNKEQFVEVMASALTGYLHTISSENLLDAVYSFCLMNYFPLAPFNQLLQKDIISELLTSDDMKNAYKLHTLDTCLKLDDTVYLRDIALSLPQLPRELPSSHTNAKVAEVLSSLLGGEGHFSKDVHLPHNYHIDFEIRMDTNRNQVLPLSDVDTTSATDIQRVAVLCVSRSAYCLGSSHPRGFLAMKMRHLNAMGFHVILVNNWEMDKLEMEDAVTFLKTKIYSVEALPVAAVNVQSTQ

MOLT-4 cells = assay: RNA sequencing of kinase transcript levels; type: cell-based, H. sapiens; settings: MOLT-4, 1 μM
Description: With long treatment times (>8 h), it is difficult to distinguish direct degradation of targets from down-regulation caused by downstream or secondary effects.
MOLT-4 cells were seeded into 24 T25 flasks with 10 mL of culture at 10^6 cells/mL prior to compound treatment. […] Cells were harvested using CellStripper™ Dissociation reagent (Corning®), washed twice with PBS, and followed by snap freezing in liquid nitrogen. Total RNA was isolated from cell pellets using the RNeasy® Mini Kit (Qiagen®) following the manufacturer's directions. For quality control, RNA concentration and rRNA ratio (28S/18S) were measured using an Agilent 2100 Bioanalyzer. Samples were submitted to BGI Group for RNA-seq library preparation and Next Generation Sequencing using the BGISEQ-500 platform producing 50 base-pair single-end reads. Sequencing reads were aligned to the human genome (BSgenome.Hsapiens.UCSC.hg19 Bioconductor package, using splicedAlignment=FALSE) and quantified at the level of genes (TxDb.Hsapiens.UCSC.hg19.knownGene Bioconductor package) using the QuasR package with default parameters (Gaidatzis et al., Bioinformatics 31(7):1130-1132 (2015)). Expressed genes were identified using the edgeR Bioconductor package (Robinson et al., Bioinformatics 26(1):139-140 (2010)).

protein kinases (human kinome) (Homo sapiens, UniProt O00746), sequence (O00746 29-187): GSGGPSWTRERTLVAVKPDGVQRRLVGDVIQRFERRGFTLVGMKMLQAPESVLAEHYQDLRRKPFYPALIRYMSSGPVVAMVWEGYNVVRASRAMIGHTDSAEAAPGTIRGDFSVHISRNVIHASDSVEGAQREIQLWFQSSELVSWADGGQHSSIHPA

## CN(C)C(=O)c1cc2cnc(Nc3ccc(N4CCN(CCCCNC(=O)COc5cccc6c5C(=O)N(C5CCC(=O)NC5=O)C6=O)CC4)cn3)nc2n1C1CCCC1 (stereo not shown) [BSJ.04.132]
[1]
  logFC: −0.4467

## Nc1ncc(-c2ccc(S(=O)(=O)N(CCCNC(=O)CCOCCOCCOCCOCCOCCNc3cccc4c3C(=O)N(C3CCC(=O)NC3=O)C4=O)C3CC3)cc2)cc1-c1ccc2c(c1)CCNC2=O (stereo not shown) [WH.10417.099]
[2]; experiment wp056
  logFC: −0.5009
[2]; experiment wp103
  logFC: −0.5201
[2]; experiment wp105
  logFC: −0.3715
[2]; experiment wp107
  logFC: −0.5734

## Cc1ccc(NC(=O)c2cccc(C(F)(F)F)c2)cc1N1Cc2cnc(Nc3ccc(N4CCN(CCCOc5cccc6c5C(=O)N(C5CCC(=O)NC5=O)C6=O)CC4)nc3)nc2N(C)C1=O (stereo not shown) [DB0662]
[3]
  logFC of PDIK1L (Q8N165): −0.3272
  logFC: −0.3272

## CC(C)S(=O)(=O)c1ccccc1Nc1nc(Nc2ccc(N3CCN(CCOCCOCCNC(=O)CNc4cccc5c4C(=O)N(C4CCC(=O)NC4=O)C5=O)CC3)cc2)ncc1Cl (stereo not shown) [TL12.186]
[4]; experiment wp131
  logFC: −0.3783
[4]; experiment wp131, direction down
  logFC: −0.3783

## Cc1ccc(C(=O)Nc2ccc(CN3CCN(CCCOCCOCCOCCNC(=O)COc4cccc5c4C(=O)N(C4CCC(=O)NC4=O)C5=O)CC3)c(C(F)(F)F)c2)cc1C#Cc1cnc2cccnn12 (stereo not shown) [SB1.G.187]
[5]; experiment wp172
  logFC: −1.23
[5]; experiment wp172, direction of change down
  logFC LYN (P07948-1): −1.23

## Cc1ccc(NC(=O)c2cccc(C(F)(F)F)c2)cc1N1Cc2cnc(Nc3ccc(N4CCN(Cc5cn(CCCCCOc6cccc7c6C(=O)N(C6CCC(=O)NC6=O)C7=O)nn5)CC4)nc3)nc2N(C)C1=O (stereo not shown) [DB0646, N-(3-(7-((6-(4-((1-(5-((2-(2,6-Dioxopiperidin-3-yl)-1,3-dioxoisoindolin-4-yl)oxy)pentyl)-1H-1,2,3-triazol-4-yl)methyl)piperazin-1-v)pyridin-3-yl)amino)-1-methyl-2-oxo-1,4-dihydropyrimido[4,5-d]pyrimidin-3(2H)-yl)-4-methylphenyl)-3-(trifluoromethyl)benzamide]
[6]; Experiment wp105, direction of change down
  logFC DDR2 (Q16832): −0.4741
[6]; protein DDR2 (Q16832), experiment wp105, down
  logFC DDR2: −0.4741
[2]; experiment wp107
  logFC: −0.353
[2]; experiment wp117
  logFC: −0.3503
[2]; experiment wp160, 8 hr
  logFC: −0.4714
[5]; Experiment wp172
  logFC of LYN (P07948-1): −0.7938
[5]; experiment wp172
  logFC: −0.7938
[7]
  logFC PFKFB3: −0.377
[8]
  CSK degradation rescue on p97 inhibition: very little degradation rescue

## CC(=O)c1c(C)c2cnc(Nc3ccc(N4CCN(CCOCCOCCOCCNC(=O)COc5cccc6c5C(=O)N(C5CCC(=O)NC5=O)C6=O)CC4)cn3)nc2n(C2CCCC2)c1=O (stereo not shown) [BSJ.03.123]
[1]
  logFC: −0.3681

## CC(C)S(=O)(=O)c1ccccc1Nc1nc(Nc2ccc(N3CCN(CCOCCNC(=O)CNc4cccc5c4C(=O)N(C4CCC(=O)NC4=O)C5=O)CC3)cc2)ncc1Cl (stereo not shown) [SK.3.91]
[4]; experiment wp103
  logFC: −0.4564
[4]; experiment wp103, direction down
  logFC: −0.4564
[4]; experiment wp105
  logFC: −0.3908
[4]; experiment wp105, direction down
  logFC: −0.3908
[4]; experiment wp107
  logFC: −0.6368
[4]; experiment wp107, direction down
  logFC: −0.6368
[4]; experiment wp133, 1 hr
  logFC: −0.4397
[4]; experiment wp133, 1 hr, direction down
  logFC: −0.4397
[4]; experiment wp133, 2 hr
  logFC: −0.4411
[4]; experiment wp133, 2 hr, direction down
  logFC: −0.4411
[4]; experiment wp133, 4 hr
  logFC: −0.7303
[4]; experiment wp133, 4 hr, direction down
  logFC: −0.7303
[4]; experiment wp160, 4 hr
  logFC: −0.4294
[4]; experiment wp160, 4 hr, direction down
  logFC: −0.4294
[9]
  logFC FASTKD2: −1

## Cc1ccc(NC(=O)c2cccc(C(F)(F)F)c2)cc1N1Cc2cnc(Nc3ccc(N4CCN(CCCCC(=O)N[C@H](C(=O)N5C[C@H](O)C[C@H]5C(=O)N[C@@H](C)c5ccc(-c6scnc6C)cc5)C(C)(C)C)CC4)nc3)nc2N(C)C1=O [DB1113]
[3]
  logFC of PDIK1L (Q8N165): −0.5334
  logFC: −0.5334

## CC(C)S(=O)(=O)c1ccccc1Nc1nc(Nc2ccc(N3CCN(CCOCCNC(=O)CNc4cccc5c4C(=O)N(C4CCC(=O)NC4=O)C5=O)CC3)cc2)ncc1Cl (stereo not shown) [SK-3-91]
MOLT-4 cells; 8- and 12-h time points
  transcript levels: complete transcriptional collapse
MOLT-4 cells; up until the 4-h time point
  transcript levels: largely unchanged
